Experimental data from patent US8702939B2, “Electrotaxis methods and devices” (McMaster University, priority 2010, dated 2014).

Assays:
Format in all cases: in vivo, Caenorhabditis elegans
C. elegans [1] = details: for movement defects on plate: lowered concentration and exposure time, slow reaction when touched on head or tail
Procedure: (§1) All assays with toxins were done using L1 stage worms. Synchronized L1 worms were exposed to toxin solutions for different time periods with mild shaking on a rotating platform. At the end of the time period, tubes were briefly centrifuged to remove drug solution and worm pellets were diluted with […] and were plated on normal NG agar plates.
These phenotypes are in agreement with published studies.

DA neurons = test: toxin-induced degeneration of DA neurons in dat-1p::yfp transgenic animals
Text: In some cases, the entire dendritic processes were missing.

C. elegans [2] = test: microfluidic electrotaxis assay of toxin/drug-exposed worms (U-turn, head movement, speed); details: for movement speed response of toxin-treated animals: abnormal = slower than 215 μm/sec, 3V/cm
Procedure: The toxins 6-OHDA (catalog no. 162957), Rotenone (catalog no. R8875) and Acetaminophen (catalog no. A7085) were obtained from Sigma Aldrich. MPTP (M325913) was from Toronto Research Chemicals. […] 6-OHDA solution is sensitive to light and therefore it was kept in the dark. A stock solution of Acetaminophen (10 mM) was prepared and stored at −20° C. At the time of toxin assay, the stock solution was diluted to 100 μM final concentration.
as §1
(§2) Experimental design was as described Rezai et al., ibid. Electric field was fixed at 3V/cm. Then, the direction of the electric field was changed and the worm was allowed to move the same distance in the opposite direction. The movement of each worm was recorded using a Nikon Coolpix P5100, NY, USA. The captured videos were analyzed using the ImageJ NIH image module. Three parameters—U-turn, head movement and speed—were used to characterize the behaviour of animals. For U-turn, the time (in seconds) that was taken by a moving worm to come to a stop and turn to the opposite direction after the electric field direction was reversed was recorded. Most wild type worms (˜90%, see results) were able to change direction in less than 10 seconds. Worms taking 10 sec or longer were considered to have an abnormal response. For the head movement analysis, the number of full sine waves (i.e., spanning up to three-fourth of the channel width) that a worm makes within a 30 sec. duration were determined. Wild-type worms make full sine waves in majority of cases with failures typically being less than 25%. Therefore, a threshold of 25% to place a worm in normal or abnormal category was used. […] To analyze speed, the time taken by a worm to move a distance of 5000 μm in a given direction was used. Speed was measured in both directions of movement and the average value was used as a true response. Wild type animals typically moved with a speed of 215 μm/sec and above. Therefore, animals moving slower than 215 μm/sec were considered to have an abnormal response.

C. elegans [3] = test: channel-based drug-screening assay: acetaminophen pre-treatment against neurotoxins (electrotaxis)
Procedure: The toxins 6-OHDA (catalog no. 162957), Rotenone (catalog no. R8875) and Acetaminophen (catalog no. A7085) were obtained from Sigma Aldrich. MPTP (M325913) was from Toronto Research Chemicals. Desired concentrations of 6-OHDA (100 μM), MPTP (700 μM) and Rotenone (25 μM) were prepared in M9 one day before the assay and stored at −20° C. 6-OHDA solution is sensitive to light and therefore it was kept in the dark. A stock solution of Acetaminophen (10 mM) was prepared and stored at −20° C. At the time of toxin assay, the stock solution was diluted to 100 μM final concentration.
as §2
In order to establish a baseline to screen for neuroprotective compounds in a channel-based assay, the neuroprotective effect of acetaminophen (a known analgesic) against neurodegeneration caused by toxinsas tested.
Pre-treatment of worms with acetaminophen (100 uM, 24 hrs exposure during L1 stage) prior to treatment with 6-0H DA as above, conferred a significant protection on the worms as evidenced by the electrotactic response of worms using all 3 movement parameters described above. The protection ranged from 30% to 50% (FIG. 34). […] The defect in head movement was decreased by 40% and U-turn by 30%. The impact of Acetaminophen on Rotenone-induced neuronal toxicity and provide first evidence that Acetaminophen protects DA neurons from the toxic effects of Rotenone. While the head movement defect was decreased by 20%, abnormalities in U-turn response and speed were lower by 50% and 38%, respectively.

SMILES: NCCc1cc(O)c(O)cc1O [6-OHDA, 6-hydroxydopamine]
- phenotype of treated L1 animals (C. elegans [1]; 5 mM 6-OHDA): extreme sluggishness, uncoordinated movement, protruding vulva, growth arrest and early larval lethality
- weak uncoordinated phenotype, proportion of worms (plate) (C. elegans [1]; 6-OHDA, 30 min exposure): one-quarter
- morphological defects on plate (C. elegans [1]; 6-OHDA, 4 hr exposure): morphological defects such as protruding vulva (Pvl)
- uncoordinated phenotype, proportion of animals (plate) (C. elegans [1]; 6-OHDA, 4 hr exposure): 86%
- degeneration of DA neurons (DA neurons; 6-OHDA 100 μM for 4 hours): did not cause an obvious degeneration of DA neurons
- animals with DA neuron (CEP dendritic process) defects (DA neurons; 6-OHDA 100 μM, longer exposure ~71 hrs): 15%
- electrotactic response in channel (C. elegans [2]; 100 μM 6-OHDA for as little as 30 min): abnormal electrotactic response
- electrotactic response in channel (C. elegans [2]; 5 mM 6-OHDA treated L1 animals): practically immobile and unresponsive to the electric field stimulus
- U-turn defect, proportion of worms (C. elegans [2]; 6-OHDA 100 μM, within 4 hour exposure of L1 worms, electric field 3V/cm, abnormal = 10 sec or longer): 30-80%
- defective head movement response, proportion of worms (C. elegans [2]; 6-OHDA, 30 minutes toxin exposure): about one-third
- defective head movement response, proportion of animals (C. elegans [2]; 6-OHDA, 1 hr exposure): 50%
- defective head movement response, proportion of worms (C. elegans [2]; 6-OHDA, 4 hour exposure): 61%
- movement speed response of toxin-treated animals (C. elegans [2]): most defective response compared to the other 2 toxins

SMILES: c1ccc([C@H]2CN3CCSC3=N2)cc1 [levamisole]
- movement response in microfluidic channel (C. elegans [2]; 10 μM levamisole, only 5 worms tested): reduced movement

SMILES: CN1CC=C(c2ccccc2)CC1 [MPTP, 1-methyl 4-phenyl 1,2,3,6-tetrahydropyridine]
- appearance on NG agar plates (C. elegans [1]; 700 μM MPTP for up to 8 hrs): fairly active and healthy
- phenotype of treated L1 worms (C. elegans [1]; 1.4 mM MPTP for 3 days): almost completely uncoordinated and paralyzed
- movement defects on plate (C. elegans [1]): only subtle and low penetrant movement defects
- electrotactic response in channel (C. elegans [2]; 700 μM MPTP for up to 8 hrs): obvious defects in the channel assay
- head movement defects, proportion of worms (C. elegans [2]; MPTP, 4 hr exposure): 80%
- movement speed response of toxin-treated animals (C. elegans [2]): wild type response in all 3 conditions tested

SMILES: C=C(C)[C@H]1Cc2c(ccc3c2O[C@@H]2COc4cc(OC)c(OC)cc4[C@@H]2C3=O)O1 [Rotenone]
- appearance on the plate (C. elegans [1]; 25 μM Rotenone for 1-8 hr): largely healthy
- morphology of exposed worms (C. elegans [1]; 25 μM rotenone for less than 12 hrs): morphological defects similar to MPTP
- movement defects on plate (C. elegans [1]): only subtle and low penetrant movement defects
- electrotactic movement (C. elegans [2]; 25 μM Rotenone for 1-8 hr): abnormal electrotactic movement
- defect in the speed of animals (C. elegans [2]; Rotenone exposure): 48%
- abnormal head movement response, proportion of worms (C. elegans [2]; Rotenone, after 8 hrs of toxin exposure): up to 30%

SMILES: CC(=O)Nc1ccc(O)cc1 [acetaminophen]
- decrease of U-turn defect (C. elegans [3]; MPTP): 30%
- decrease of head movement defect (C. elegans [3]; MPTP): 40%
- decrease of abnormalities in U-turn response (C. elegans [3]; Rotenone): 50%
- decrease of abnormalities in speed (C. elegans [3]; Rotenone): 38%
- decrease of head movement defect (C. elegans [3]; Rotenone): 20%
